According to patent publication US9802899B2, “Heterocyclic compounds as pesticides” (BAYER CROPSCIENCE AG, priority 2012, dated 2017):

Experiments:
Phaedon cochleariae = Phaedon cochleariae spray test (PHAECO); format: in vivo; conditions: foliar, 168 h, application rate 500 g/ha, larvae on Chinese cabbage leaf discs, after 7 days, read-out: efficacy
Protocol: Phaedon cochleariae Spray Test (PHAECO)
Solvents: 78.0 parts by weight of acetone • • 1.5 parts by weight of dimethylformamide
Emulsifier: 0.5 part by weight of alkylaryl polyglycol ether
To produce a suitable preparation of active compound, 1 part by weight of active compound is mixed with the stated amounts of solvents and emulsifier, and the concentrate is diluted with emulsifier-containing water to the desired concentration.
After 7 days, the efficacy in % is determined. 100% means that all of the beetle larvae have been killed; 0% means that none of the beetle larvae have been killed.

[1] = Determination of the log P values by HPLC (formic acid method); format: physicochemical; conditions: reversed-phase column (C 18), acidic range (pH 3.4), 55° C.
Protocol: 1) Description of Method for Determination of the Log P Values (Formic Acid Method)
Eluents for determination in the acidic range (pH 3.4):
Eluent A: acetonitrile+1 ml of formic acid/liter. Eluent B: water+0.9 ml of formic acid/liter.
The lambda max values were determined in the maxima of the chromatographic signals using the UV spectra from 200 nm to 400 nm.

Boophilus microplus = Boophilus microplus test (DIP); format: in vivo; conditions: application rate 100 ppm, after 7 days by laying of fertile eggs, 100% = no fertile eggs
Protocol: Boophilus microplus Test (DIP)
Test animals: adult engorged Boophilus microplus females of the SP-resistant Parkhurst strain
(§1) Solvent: dimethyl sulphoxide
10 mg of active compound are dissolved in 0.5 ml of dimethyl sulphoxide. For the purpose of preparing a suitable formulation, the active compound solution is diluted with water to the concentration desired in each case.
This active compound preparation is pipetted into tubes. 8-10 ticks are transferred into a further tube with holes. The tube is immersed into the active compound formulation, and all ticks are completely wetted. After the liquid has run out, the ticks are transferred onto filter discs in plastic dishes and stored in a climate-controlled room.
The activity is assessed after 7 days by laying of fertile eggs. Eggs whose fertility is not visible from the outside are stored in a climate-controlled cabinet until the larvae hatch. An efficacy of 100% means that none of the ticks has laid any fertile eggs.

Cooperia curticei = Cooperia curticei test (COOPCU); format: in vivo; conditions: nematode larvae, after 5 days
Protocol: Cooperia curticei Test (COOPCU)
as §1
To produce a suitable preparation of active compound, 10 mg of active compound are mixed with 0.5 ml of dimethyl sulphoxide, and the concentrate is diluted with Ringer solution to the desired concentration.
Vessels containing the active compound preparation of the desired concentration are populated with about 40 nematode larvae (Cooperia curticei).
After 5 days, the kill in % is determined 100% means that all of the larvae have been killed; 0% means that none of the larvae have been killed.

[2] = reversed-phase HPLC column (C 18)

## Cc1ccccc1-n1ccc(NC(=O)c2ccccc2Br)n1 [Compound I-1-1, 2-BromoN-[1-(2-methylphenyl)-1H-pyrazol-3-yl]benzamide]
Phaedon cochleariae
  pest or weed control at 500 g/ha: 100%
[1]; [2]
  chromatographic logP: 2.79

## O=C(Nc1ccn(-c2ccccc2C(F)(F)F)n1)c1ccccc1I [Compound I-1-5]
Boophilus microplus
  efficacy: 100%
[1]
  log P: 3.05

## O=C(Nc1nn(-c2ccccc2Cl)cc1Cl)c1ccccc1C(F)(F)F [Compound I-1-15, N-[4-Chloro-1-(2-chlorophenyl)-1H-pyrazol-3-yl]-2-(trifluoromethyl)benzamide]
Phaedon cochleariae
  pest or weed control at 500 g/ha: 100%
[1]; [2]
  chromatographic logP: 3.06

## O=C(Nc1nn(-c2ccccc2Cl)cc1Br)c1ccccc1C(F)(F)F [Compound I-1-16, N-[4-Bromo-1-(2-chlorophenyl)-1H-pyrazol-3-yl]-2-(trifluoromethyl)benzamide]
Phaedon cochleariae
  pest or weed control at 500 g/ha: 83%
[1]; [2]
  chromatographic logP: 3.11

## CN(C(=O)c1ccccc1Cl)c1ccn(-c2ccccc2Cl)n1 [Compound I-1-21, 2-Chloro-N-[1-(2-chlorophenyl)-1H-pyrazol-3-yl]-N-methylbenzamide]
Phaedon cochleariae
  pest or weed control at 500 g/ha: 100%
[1]; [2]
  chromatographic logP: 3.14

## CCN(C(=O)c1ccccc1Cl)c1ccn(-c2ccccc2Cl)n1 [Compound I-1-22]
[1]
  log P: 3.41
Cooperia curticei; application rate 100 ppm
  efficacy (kill): 80%

## O=C(Nc1ccn(-c2ccccc2Cl)n1)c1ccccc1Br [Compound I-1-32]
Boophilus microplus
  efficacy: 80%
[1]
  log P: 2.83

## O=C(Nc1ccn(-c2ccccc2Cl)n1)c1ccccc1I [Compound I-1-33]
Boophilus microplus
  efficacy: 100%
[1]
  log P: 2.95

## Cc1nn(C)c(Cl)c1C(=O)Nc1ccn(-c2ccccc2Cl)n1 [Compound I-1-48]
Boophilus microplus
  efficacy: 100%
[1]
  log P: 2.46

## Cc1cccc(C)c1-n1ccc(NC(=O)c2ccccc2Cl)n1 [Compound I-1-61, 2-Chloro-N-[1-(2,6-dimethylphenyl)-1H-pyrazol-3-yl]benzamide]
Phaedon cochleariae
  pest or weed control at 500 g/ha: 100%
[1]; [2]
  chromatographic logP: 2.63

## Cn1nc(C(F)(F)F)c(C(=O)Nc2ccn(-c3cc(F)ccc3F)n2)c1F [Compound I-1-72, N-[1-(2,5-Difluorophenyl)-1H-pyrazol-3-yl]-5-fluoro-1-methyl-3-(trifluoromethyl)-1H-pyrazole-4-carboxamide]
Phaedon cochleariae
  pest or weed control at 500 g/ha: 100%
[1]; [2]
  chromatographic logP: 2.93

## O=C(Nc1ccn(-c2c(Cl)cccc2Cl)n1)c1ccccc1Cl [Compound I-1-121]
[1]
  log P: 2.84
Cooperia curticei; application rate 100 ppm
  efficacy (kill): 80%

## O=C(Nc1ccn(-c2c(Cl)cccc2Cl)n1)c1ccccc1I [Compound I-1-123, N-[1-(2,6-Dichlorophenyl)-1H-pyrazol-3-yl]-2-iodobenzamide]
Phaedon cochleariae
  pest or weed control at 500 g/ha: 100%
[1]; [2]
  chromatographic logP: 3.04

## O=C(Nc1ccn(-c2ccc(F)cc2F)n1)c1ccccc1Cl [Compound I-1-211]
[1]
  log P: 2.91
Cooperia curticei; application rate 100 ppm
  efficacy (kill): 80%

## O=C(Nc1ccn(-c2c(F)cccc2F)n1)c1sccc1C(F)(F)F [Compound I-1-284]
[1]
  log P: 2.82
Cooperia curticei; application rate 4 ppm
  efficacy (kill): 80%

## O=C(Nc1ccn(-c2cccc(Cl)c2F)n1)c1ccccc1C(F)(F)F [Compound I-1-555]
[1]
  log P: 3.37
Cooperia curticei; application rate 4 ppm
  efficacy (kill): 90%

## O=C(Nc1cnn(-c2ccccc2Br)n1)c1ccccc1Cl [Compound I-2-7]
[1]
  log P: 2.93
Cooperia curticei; application rate 4 ppm
  efficacy (kill): 80%

## O=C(Nc1ccn(-c2c(F)cccc2F)c1)c1ccccc1I [Compound I-3-3]
[1]
  log P: 2.96

## COc1ccc(C(=O)Nc2ccn(-c3c(F)cccc3F)c2)c(Cl)c1 [Compound I-3-4]
[1]
  log P: 2.97

## O=C(Nc1ccn(-c2c(F)cccc2F)c1)c1cccnc1C(F)(F)F [Compound I-3-5]
[1]
  log P: 2.52

## O=C(Nc1ccn(-c2c(F)cccc2F)c1)c1occc1I [Compound I-3-6]
[1]
  log P: 2.96

## O=C(Nc1ccn(-c2c(F)cccc2F)c1)c1ccsc1I [Compound I-3-7]
[1]
  log P: 3.07

## O=C(NC1=NN(c2c(F)cccc2F)CC1)c1ccccc1Cl [Compound I-4-1]
[1]
  log P: 2.75

## O=C(NC1=NN(c2c(F)cccc2F)CC1)c1ccccc1Br [Compound I-4-2, 2-Bromo-N-[1-(2,6-difluorophenyl)-4,5-dihydro-1H-pyrazol-3-yl]benzamide]
Phaedon cochleariae
  pest or weed control at 500 g/ha: 100%
[1]; [2]
  chromatographic logP: 2.8

## O=C(NC1=NN(c2c(F)cccc2F)CC1)c1c(F)cccc1F [Compound I-4-3]
[1]
  log P: 2.59

## O=C(NC1=NN(c2c(F)cccc2F)CC1)c1ccccc1I [Compound I-4-4]
[1]
  log P: 2.31

## Cc1ccccc1C(=O)NC1=NN(c2c(F)cccc2F)CC1 [Compound I-4-5]
[1]
  log P: 2.21

## Cc1ccccc1C(=O)N(C(=O)c1cccnc1C)C1=NN(c2c(F)cccc2F)CC1 [Compound I-4-6]
[1]
  log P: 4.45

## O=C(NC1=NN(c2c(F)cccc2F)CC1)c1ccccc1C(F)(F)F [Compound I-4-7]
[1]
  log P: 2.34

## O=C(NC1=NN(c2ccccc2Cl)CC1)c1ccccc1Br [Compound I-4-8]
[1]
  log P: 2.37

## O=C(Nc1nn(-c2ncc(F)cc2F)c2ccc(F)cc12)c1ccccc1C(F)(F)F [Compound I-5-2, N-[1-(3,5-Difluoropyridin-2-yl)-5-fluoro-1H-indazol-3-yl]-2-(trifluoromethyl)benzamide]
[1]; [2]
  chromatographic logP: 3.37

## O=C(Nc1nn(-c2ncc(F)cc2F)c2ccccc12)c1ccccc1Br [Compound I-5-3]
[1]
  log P: 3.09

## O=C(Nc1nn(-c2ncccc2F)c2ccccc12)c1ccccc1Br [Compound I-5-4]
[1]
  log P: 2.67

## O=C(Nc1nn(-c2ncc(C(F)(F)F)cc2Cl)c2ccccc12)c1ccccc1Br [Compound I-5-5]
[1]
  log P: 3.98

## O=C(Nc1nn(-c2cc(F)cnc2F)c2ccccc12)c1ccccc1Br [Compound I-5-6]
[1]
  log P: 3.05

## O=C(Nc1nn(-c2cc(F)cnc2F)c2ccc(F)cc12)c1ccccc1C(F)(F)F [Compound I-5-7]
[1]
  log P: 3.39

## O=C(Nc1nn(-c2ccccc2Cl)c2ccccc12)c1ccccc1C(F)(F)F [Compound I-5-8, N-[1-(2-Chlorophenyl)-1H-indazol-3-yl]-2-(trifluoromethyl)benzamide]
[1]; [2]
  chromatographic logP: 3.54

## O=C(Nc1nn(-c2ccccc2Cl)c2ccccc12)c1cccnc1C(F)(F)F [Compound I-5-9]
[1]
  log P: 3.11

## N#Cc1cc(F)c(-n2nc(NC(=O)c3ccccc3C(F)(F)F)c3c(F)cccc32)cc1F [Compound I-5-10]
[1]
  log P: 3.26

## N#Cc1cc(F)c(-n2nc(NC(=O)c3c(F)cccc3F)c3c(F)cccc32)cc1F [Compound I-5-11]
[1]
  log P: 2.99

## Nc1cnn(-c2ncc(F)cc2F)n1 [Ex.45-V, 2-(3,5-Difluoropyridin-2-yl)-2H-1,2,3-triazole-4-amine]
[1]; [2]
  chromatographic logP: 0.65

## Nc1cnn(-c2c(F)cccc2F)n1 [Ex. 21-IX, 2-(2,6-Difluorophenyl)-2H-1,2,3-triazole-4-amine]
[1]
  chromatographic logP: 1.16

## Fc1cccc(F)c1-n1cccc1 [Ex. 46-I, 1-(2,6-Difluorophenyl)-1H-pyrrole]
[1]; [2]
  chromatographic logP: 2.98

## O=[N+]([O-])c1ccn(-c2c(F)cccc2F)c1 [Ex. 46-II, 1-(2,6-Difluorophenyl)-3-nitro-M-pyrrole]
[1]
  log P: 2.58

## O=C(Nc1cc[nH]n1)c1ccccc1C(F)(F)F [N-(1H-Pyrazol-3-yl)-2-(trifluoromethyl)benzamide]
[1]; [2]
  chromatographic logP: 1.33

## CC(=O)Nc1ccn(-c2c(F)cccc2F)n1 [N-[1-(2,6-Difluorophenyl)-1H-pyrazol-3-yl]acetamide]
[1]
  chromatographic logP: 1.33

## CC(=O)NC1=NN(c2c(F)cccc2F)CC1 [N-[1-(2,6-Difluorophenyl)-4,5-dihydro-1H-pyrazol-3-yl]acetamide]
[1]
  chromatographic logP: 1.46
